Where two headings read alike, the source gives them in different places.
Experiments:
human mPGES-1 = target: T1, human mPGES-1 (Homo sapiens, UniProt O14684); assay: Evaluation of human mPGES-1 enzyme inhibitory activity (HTRF measurement of PGE2); format: biochemical; details: IC50 value; microsome fraction of CHO-S cells expressing human mPGES-1, PGH2 substrate, PGE2 by HTRF; read-out: humans mPGES-1 enzyme inhibitory activity
T1 construct: made in house; host or cells: Chinese hamster ovary-derived cells (FreeStyle CHO-S), transient transfection of pcDNA3.1(+)/human mPGES-1; microsome fraction
T1 sequence (O14684 1-152): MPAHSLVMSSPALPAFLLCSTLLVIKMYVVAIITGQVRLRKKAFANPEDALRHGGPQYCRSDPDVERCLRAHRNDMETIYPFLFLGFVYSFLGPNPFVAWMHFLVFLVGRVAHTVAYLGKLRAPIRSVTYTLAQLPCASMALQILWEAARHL
Procedure: Experimental Example 1: Evaluation of Human mPGES-1 Enzyme Inhibitory Activity
The human mPGES-1 enzyme inhibitory activity of a test article was evaluated according to the report of Xu et al. (XU, D et al. MF63 [2-(6-chloro-1H-phenanthro[9,10-d]imidazol-2-yl)-isophthalonitrile], a selective microsomal prostaglandin E synthase-1 inhibitor relieves pyresis and pain in preclinical models of inflammation. J Pharmacol Exp Ther. September 2008, Vol. 326, No. 3, pages 754-763). The amount of PGE2 produced by human mPGES-1 in the presence of a test article was measured by the HTRF (homogeneous time resolved fluorescence) method, and the human mPGES-1 enzyme inhibitory activity of the test article was determined.
1) Preparation of Human mPGES-1 Expressing Cell Microsome Fraction
A DNA fragment containing human mPGES-1, which is added with a BamHI recognition cleavage sequence just before the translation initiation codon and an EcoRI recognition cleavage sequence just after the translation termination codon, was amplified by the PCR (Polymerase Chain Reaction) method using a human mPGES-1 expression plasmid DNA (pME-18S/iPGES-1) prepared in-house as a template. The purified DNA fragment was digested with BamHI and EcoRI, and ligated to pcDNA3.1(+) (Invitrogen, model number V790-20), similarly_digested with BamHI and EcoRI, by using a DNA Ligation kit ver. 2.1 (Takara Bio, model number 6022). The human mPGES-1 expression plasmid DNA was isolated from Escherichia coli DH5a (TOYOBO, model number DNA-903) transformed with the obtained ligation product. The base sequence of human mPGES-1 cloned to a vector was determined by the Dye Terminator method using BigDye Terminator v3.1 Cycle Sequencing Kit (Applied Biosystems, #4337455). The determined sequence was identical with the sequence of the protein translational region of human mPGES-1 (Accession number NM 004878) registered in the NCBI Reference Database.
Human mPGES-1 expression plasmid DNA was transfected into Chinese hamster ovary-derived cells (FreeStyle CHO-S Cell, Invitrogen, #R^800-07) by using a transgene reagent (FreeStyle MAX Reagent (Invitrogen, #16447-100)), and cultured with shaking (8% CO2, 37° C.) in a medium containing 8 mmol/L L-glutamine (GIBCO FreeStyle CHO Expression Medium, Invitrogen, #12651-022) for 48 hr.
The CHO-S cells were suspended in Homogenate Buffer (100 mmol/L potassium phosphate (pH 7.4), 250 mmol/L Sucrose, 100 mmol/L EDTA, complete EDTA free (Roche, #1873580)). Using an ultrasonic disruptor UD-201 (Tomy Seiko), the suspended cells were disrupted at output:3, duty cycle:50 for 30 seconds. The precipitate was removed by centrifugation (1,000×g, 5 min, 4° C.), and the supernatant was centrifuged (5,000×g, 10 min, 4° C.). The supernatant was further centrifuged (105,000×g, 60 min, 4° C.). The obtained precipitate was suspended in Resuspension Buffer (100 mmol/L potassium phosphate (pH 7.4), 250 mmol/L sucrose, 100 mmol/L EDTA, 10% glycerol) to give a microsome fraction.
The protein concentration of the microsome fraction was measured by the Bradford method (Protein Assay Kit, Bio-Rad). The microsome fraction was rapidly frozen in liquid nitrogen and preserved at −80° C. Human mPGES-1 in the microsome fraction was detected by Western Blot using rabbit anti-mPGES-1 polyclonal antibody (ThermoFisher Scientific, #PA1-10264).
2) Evaluation of Human mPGES-1 Enzyme Inhibitory Activity
A test article solution diluted with 0.1 mol/L potassium phosphate, pH 7.4 (hereinafter to be referred to as KPB) or DMSO (Nacalai Tesque, #13407-45) was added at 5 μL/well to 96 well V-bottom plate (Corning, #3363). The final DMSO concentration during the reaction was set to 2%(v/v). Furthermore, a microsome fraction of CHO-S cells expressing human mPGES-1, which was diluted with reduced GSH (12.5 mmol/L KPB solution, SIGMA, #G6529-25G) such that the protein concentration was 5 μg/mL, was added at 20 μL/well. […]

A549 cell = assay: Evaluation of PGE2 production inhibitory action using A549 cell (IL-1β stimulated); format: cell-based, human
Procedure: Experimental Example 2: Evaluation of PGE2 Production Inhibitory Action Using A549 Cell
A549 cell (Japan Health Sciences Foundation Research Resources Bank), which is cell line derived from humans lung cancer, was suspended in assay medium (Ham's F-12K (Wako, #080-08565) containing 2% FBS (Hyclone Laboratories, #SH30910.03), 100 units/mL penicillin and 100 μg/mL streptomycin (Invitrogen, #15140-122)), the suspension was added at 2.5×10^4 cells/100 μL/well to 96 well flat-bottom plate (Corning, #353072), and the plate was left standing for 20 hr in a CO2 incubator set at 37° C. The test article was serially diluted with DMSO (Nacalai Tesque, #13407-45), and then 20-fold diluted with the assay medium to prepare a test article solution having a ten-fold concentration of the final concentration. The final DMSO concentration during the reaction was set to 0.5% (v/v). The medium was removed from the plate in which the cell was added, new assay medium was added at 160 μL/well to the plate, and the plate was left standing for 10 min in a CO2 incubator. Then, the test article solution was added at 20 μL/well to the plate, and the plate was left standing for 30 min in a CO2 incubator. Next, recombinant humans IL-1β (R&D Systems, #201-LB) as a stimulant to enhance PGE2 production due to increase of mPGES-1 mRNA expression was added at 20 μL/well (the final concentration was 1 ng/mL) to the plate, and the plate was left standing for 18 hr in a CO2 incubator. The supernatant was collected at 180 μL/well, and the PGE2 concentration was measured using Prostaglandin E2 assay (CISbio Bioassays, #62P2APEC) according to the manual. As the reference standard for analytical curve, PGE2 (Cayman Chemical, #14010) was used. Using EnVision 2104 (Perkin Elmer), the time-resolved fluorescence at 620 nm and 665 nm relative to the excitation light at 337 nm was measured. PGE2 concentration was extrapolated from the PGE2 analytical curve. Average of the PGE2 concentrations of the respectively-treated wells was used as the data.
The PGE2 production inhibitory activity (%) of the test article was calculated according to the following Formula 3. PGE2 production inhibitory activity(%)=(PGE2A−PGE2X)/(PGE2A−PGE2B)×100 [Formula 3] • PGE2A: PGE2 concentration of vehicle-treated well • PGE2B: PGE2 concentration of blank well (no addition of recombinant humans IL-1B) • PGE2X: PGE2 concentration of test article-treated well

[1] = A549 cell, recombinant human IL-1β stimulation, read-out: cell PGE2 production inhibitory activity (IC50 value)
[2] = Homo sapiens, A549, A549 cell, recombinant human IL-1β stimulation, read-out: cell PGE2 production inhibitory activity (IC50 value)
[3] = Homo sapiens, A549, 18 h, IC50 value, A549 cell, recombinant IL-1β 1 ng/mL, 18 hr, PGE2 in supernatant, read-out: cell PGE2 production inhibitory activity

IC50 (human mPGES-1) [nM] | IC50 (A549 cell; [1]) [nM] | IC50 (A549 cell; [2]) [nM] | IC50 (A549 cell; [3]) [nM] | Structure (SMILES)
0.8 | 4.8 | – | – | CCC(OC)(C(=O)NCc1ccc(Cl)c(-c2nc(O)nc(-c3cccc(C(C)C)c3)n2)c1)C(F)(F)F (single isomer, unassigned) [Example 132]
1.7 | 19 | – | – | CCC(OC)(C(=O)NCc1ccc(Cl)c(-c2nc(O)nc(-c3cccc(C(C)C)c3)n2)c1)C(F)(F)F (single isomer, unassigned) [Example 134]
7.7 | – | 2.1 | – | CCC[C@@H](C)Oc1ccc(-c2nc(O)nc(-c3cc(CNC(=O)C(CC)(OC)C(F)(F)F)ccc3Cl)n2)cn1 (single isomer, unassigned) [Example 142]
3.9 | 1.6 | – | – | CCC[C@@H](C)Oc1ccc(-c2nc(O)nc(-c3cc(CNC(=O)C(CC)(OC)C(F)(F)F)ccc3Cl)n2)cn1 (single isomer, unassigned) [Example 143]
3.9 | – | 1.6 | – | CCC[C@H](C)Oc1ccc(-c2nc(O)nc(-c3cc(CNC(=O)C(CC)(OC)C(F)(F)F)ccc3Cl)n2)cn1 (single isomer, unassigned) [Example 144]
4.5 | 1.7 | – | – | CCC[C@H](C)Oc1ccc(-c2nc(O)nc(-c3cc(CNC(=O)C(CC)(OC)C(F)(F)F)ccc3Cl)n2)cn1 (single isomer, unassigned) [Example 145]
0.9 | – | – | 27 | CCCOc1cccc(-c2nc(O)nc(-c3cc(CNC(=O)C(C)(C)C(F)(F)F)ccc3Cl)n2)c1 [Example 1]
1.1 | – | – | 8.6 | CCCOc1ccc(-c2nc(O)nc(-c3cc(CNC(=O)C(C)(C)C(F)(F)F)ccc3Cl)n2)cn1 [Example 2]
2.1 | – | – | 27 | CCCCOc1cccc(-c2nc(O)nc(-c3cc(CNC(=O)C(C)(C)C(F)(F)F)ccc3Cl)n2)c1 [Example 3]
12 | – | – | 2.9 | CCCOc1ccc(-c2nc(O)nc(-c3cc(CNC(=O)C(C)(C)C(F)(F)F)ccc3Cl)n2)cc1C(C)C [Example 4]
1.1 | – | – | 30 | CCCCc1cccc(-c2nc(O)nc(-c3cc(CNC(=O)C(C)(C)C(F)(F)F)ccc3Cl)n2)c1 [Example 5]
0.4 | – | – | 23 | CCC(C)(C)C(=O)NCc1ccc(Cl)c(-c2nc(O)nc(-c3cccc(C(C)C)c3)n2)c1 [Example 6]
1 | – | – | 68 | CCCC(C)(C)C(=O)NCc1ccc(Cl)c(-c2nc(O)nc(-c3cccc(C(C)C)c3)n2)c1 [Example 7]
0.7 | – | – | 14 | CCC1(C(=O)NCc2ccc(Cl)c(-c3nc(O)nc(-c4cccc(C(C)C)c4)n3)c2)CC1 [Example 8]
0.7 | – | – | 37 | CCOc1cccc(-c2nc(O)nc(-c3cc(CNC(=O)C(C)(C)C(F)(F)F)ccc3Cl)n2)c1 [Example 9]
1.7 | – | – | 49 | CCCOc1cc(C)cc(-c2nc(O)nc(-c3cc(CNC(=O)C(C)(C)C(F)(F)F)ccc3Cl)n2)c1 [Example 10]
0.2 | – | – | 17 | Cc1cc(-c2nc(O)nc(-c3cc(CNC(=O)C(C)(C)C(F)(F)F)ccc3Cl)n2)cc(C(C)(C)C)c1 [Example 11]
3.2 | – | – | 350 | COCC(C)(C)C(=O)NCc1ccc(Cl)c(-c2nc(O)nc(-c3cccc(C(C)C)c3)n2)c1 [Example 12]
21 | – | – | 1000 | COCC1(C(=O)NCc2ccc(Cl)c(-c3nc(O)nc(-c4cccc(C(C)C)c4)n3)c2)CC1 [Example 13]
1.2 | – | – | 4.7 | CCCCOc1ccc(-c2nc(O)nc(-c3cc(CNC(=O)C(C)(C)C(F)(F)F)ccc3Cl)n2)cn1 [Example 14]
0.5 | – | – | 120 | CCC(C)(CC)C(=O)NCc1ccc(Cl)c(-c2nc(O)nc(-c3cccc(C(C)C)c3)n2)c1 [Example 15]
0.4 | – | – | 34 | CC(C)c1cccc(-c2nc(O)nc(-c3cc(CNC(=O)C4(C)CCCCC4)ccc3Cl)n2)c1 [Example 16]
67 | – | – | 1300 | CCOC(C)(C)C(=O)NCc1ccc(Cl)c(-c2nc(O)nc(-c3cccc(C(C)C)c3)n2)c1 [Example 17]
5.3 | – | – | 260 | CC(C)c1cc(-c2nc(O)nc(-c3cc(CNC(=O)C(C)(C)C(F)(F)F)ccc3Cl)n2)cc(C(C)C)c1 [Example 18]
3.3 | – | – | 1.7 | CC(C)(C)COc1ccc(-c2nc(O)nc(-c3cc(CNC(=O)C(C)(C)C(F)(F)F)ccc3Cl)n2)cn1 [Example 19]
30 | – | – | 150 | CC(C)(C)c1cc(-c2nc(O)nc(-c3cc(CNC(=O)C(C)(C)C(F)(F)F)ccc3Cl)n2)cc(C(C)(C)C)c1 [Example 20]
3.9 | – | – | 2.2 | CCCCCOc1ccc(-c2nc(O)nc(-c3cc(CNC(=O)C(C)(C)C(F)(F)F)ccc3Cl)n2)cn1 [Example 21]
